Series [1] is described as follows: Human liver cytosol intrinsic clearance. The format is in vitro ADME. As to conditions: for CLint scaled at 1 μM / microsomal CLint at 1 μM: human, cytosol. As for the experimental part: (§1) Incubations were performed in 1 mg/mL human liver cytosol with high aldehyde oxidase (AO)/xanthine oxidase (XO) activity or 2.5 mg/mL human liver S-9 fraction with high AO/XO activity at 1 μM concentration of test compound in duplicate, and the concentration-time course of test compound depletion was determined after withdrawing samples from the incubation at assay time points followed by liquid chromatography with tandem mass spectrometry analysis. An organic solvent was used to terminate incubations.
(§2) These available known AO substrates along with the test compounds were analyzed using three in vitro systems (pooled human liver cytosol, liver S-9 fractions and human hepatocytes isolated from livers perfused with HTK media). Scaled unbound intrinsic clearances were calculated for the test compounds/new chemical entities and were compared to the in vivo unbound intrinsic clearances of the known AO substrates.

Series [2] in a line: Human liver S-9 intrinsic clearance. It counts as in vitro ADME. As to conditions: for CLint scaled at 1 μM / microsomal CLint at 1 μM: human; for CLint scaled at 1 μM: s9; for Human Liver S-9 Intrinsic Clearance _1 / Human Liver S-9 Intrinsic Clearance _2: 2.5 mg/mL S-9, 1 μM. As for the experimental part:
as §1, §2

A short description of series [3]: Human hepatocyte intrinsic clearance. The format is in vitro ADME. Conditions: for CLint scaled at 1 μM / hepatocyte CLint at 1 μM: human, hepatocytes. The method, then: Incubations were performed in 0.5 million hepatocytes cells/mL at 1 μM concentration of test compound in duplicate with rat, human, dog, monkey, or mouse hepatocytes, and the concentration-time course of test compound depletion was determined after withdrawing samples from the incubation at assay time points followed by liquid chromatography with tandem mass spectrometry analysis. An organic solvent was used to terminate incubations.
as §2

For series [4] the following is noted: known AO substrates, human, literature; cited from earlier work.
Where [5] appears, read: Human Liver Cytosol Intrinsic Clearance _1.
The mark [6] stands for this setting: Human Liver Cytosol Intrinsic Clearance _2.
[7] abbreviates: 1 mg/mL cytosol, 1 μM, replicate 1.
Setting [8] is: 1 mg/mL cytosol, 1 μM, replicate 2.
The mark [9] stands for this setting: 1 mg/mL cytosol, 1 μM, replicate 1, read-out: Human Liver Cytosol Intrinsic Clearance _1.
[10] abbreviates: 1 mg/mL cytosol, 1 μM, replicate 2, read-out: Human Liver Cytosol Intrinsic Clearance _2.
[11] abbreviates: scaled data, read-out: Human Liver Cytosol in vitro scaled Intrinsic Clearance.
Setting [12] is: s9, 2.5 mg/mL S-9, 1 μM, replicate 1, read-out: Human Liver S-9 Intrinsic Clearance _1.
The mark [13] stands for this setting: s9, 2.5 mg/mL S-9, 1 μM, replicate 2, read-out: Human Liver S-9 Intrinsic Clearance _2.
Setting [14] is: scaled data, read-out: Human Liver S-9 in vitro scaled Intrinsic Clearance.
Setting [15] is: raw data, AO calibration set, read-out: Human Hepatocytes Intrinsic Clearance.
The mark [16] stands for this setting: scaled data, read-out: Human Hepatocytes in vitro scaled Intrinsic Clearance.

Read-outs that look alike come from different tables or passages of the source.

Here are results for 12 compounds from patent US11530216B2, “Deuterated colony stimulating factor-1 receptor (CSF-1R) inhibitors” (Genzyme Corporation, priority 2020, dated 2022).

Take `[2H]c1nc2cccnc2n1Cc1cc(OC)c2c(c1)O[C@H](C)[C@@H](c1ccc(OC)nc1)O2` [Compound 5, 3-(((2R,3R)-8-methoxy-2-(6-methoxypyridin-3-yl)-3-methyl-2,3-dihydrobenzo[b][1,4]dioxin-6-yl)methyl)-3H-imidazo[4,5-b]pyridine-2-d]: the results for the CLint scaled at 1 μM in series [1], in series [2] and in series [3] were 2.2 mL/min/kg, 3.6 mL/min/kg and 19.7 mL/min/kg, respectively. The microsomal CLint at 1 μM in series [1] (setting [5]) is 0.7 µL/min/mg; in series [1] (setting [6]) it was 1.4 µL/min/mg; in series [2] (s9, Human Liver S-9 Intrinsic Clearance _1), less than 1.1 µL/min/mg; in series [2] (s9, Human Liver S-9 Intrinsic Clearance _2), less than 1.1 µL/min/mg. The compound also returned a hepatocyte CLint at 1 μM in series [3] of 7.74 µL/min/1e6 cells.
Turning to `CCNC(=O)OC1CCN(c2nncc3cc(OC)c(OC)cc23)CC1` [carbazeran], the “Estimated Free in vivo Intrinsic Clearance (Ref)” value (from here on “Estimated Free”) in series [4] is reported as 13000.
`Nc1nc(OCc2ccccc2)c2nc[nH]c2n1` [O6-benzylguanine]: the “Human Liver Cytosol Intrinsic Clearance _1” value in series [1] (setting [7]) is 5.6 μL/min/mg protein. Also, the “Human Liver Cytosol Intrinsic Clearance _2” value in series [1] (setting [8]) was 4.9 μL/min/mg protein. For the same compound, in series [1] (scaled data), the “Human Liver Cytosol in vitro scaled Intrinsic Clearance” value was found to be 10.7 mL/min/kg. Moreover, the “Estimated Free” value in series [4] is listed as 360. Further, the “Human Liver S-9 Intrinsic Clearance _1” value in series [2] (replicate 1) is 6.66 μL/min/mg protein. The “Human Liver S-9 Intrinsic Clearance _2” value in series [2] (replicate 2) is reported as 5.97 μL/min/mg protein. In addition, the “Human Liver S-9 in vitro scaled Intrinsic Clearance” value in series [2] (scaled data) is 19.5 mL/min/kg. Moreover, the “Human Hepatocytes Intrinsic Clearance” value in series [3] (raw data, AO calibration set) was found to be 13.6 μL/min/10^6 cells. In addition, the “Human Hepatocytes in vitro scaled Intrinsic Clearance” value in series [3] (scaled data) is 34.6 mL/min/kg.
In the case of `[2H]c1ccc2ncn(Cc3cc(OC)c4c(c3)O[C@@H](C)[C@H](c3ccc(OC)nc3)O4)c2n1` (racemic) [Compound 1, (+/−)-3-(((trans)-8-methoxy-2-(6-methoxypyridin-3-yl)-3-methyl-2,3-dihydrobenzo[b][1,4]dioxin-6-yl)methyl)-3H-imidazo[4,5-b]pyridine-5-d], the CLint scaled at 1 μM in series [1] is 6.9 mL/min/kg; in series [3], 26.2 mL/min/kg. The results for the microsomal CLint at 1 μM in series [1] (setting [5]) and in series [1] (setting [6]) were 3.4 µL/min/mg and 3.3 µL/min/mg, respectively. The compound further displayed a hepatocyte CLint at 1 μM in series [3] of 10.3 µL/min/1e6 cells.
With `OCCn1cc(-c2cnc3nnn(Cc4ccc5ncccc5c4)c3n2)cn1` [PF-4217903], the microsomal CLint at 1 μM in series [1] (setting [9]) was less than 0.7 µL/min/mg; in series [1] (setting [10]), less than 0.7 µL/min/mg; in series [2] (setting [12]) it was less than 1.1 µL/min/mg; in series [2] (setting [13]), less than 1.1 µL/min/mg. The CLint scaled at 1 μM in series [1] (setting [11]) was less than 1.5 mL/min/kg; in series [2] (setting [14]), less than 3.4 mL/min/kg; in series [3] (setting [16]), 10.4 mL/min/kg. Also, in series [4], the “Estimated Free” value was 46. Besides, in series [3] (setting [15]), the hepatocyte CLint at 1 μM was 4.08 µL/min/1e6 cells.
On to `N=C(N)NC(=O)c1cnn(-c2cccc3ncccc23)c1C1CC1` [zoniporide], for which the CLint scaled at 1 μM worked out at 12.4 mL/min/kg in series [1], 18.6 mL/min/kg in series [2] and 33.8 mL/min/kg in series [3]. Also, the “Estimated Free” value in series [4] is 180. Also, in series [3], the hepatocyte CLint at 1 μM stood at 13.3 µL/min/1e6 cells.
As for `CN(C)CCNC(=O)c1cccc2cc3ccccc3nc12` [DACA], in series [1] (setting [7]), the “Human Liver Cytosol Intrinsic Clearance _1” value is 46.2 μL/min/mg protein. In series [1] (setting [8]), the “Human Liver Cytosol Intrinsic Clearance _2” value is given as 46.8 μL/min/mg protein. The “Human Liver Cytosol in vitro scaled Intrinsic Clearance” value in series [1] (scaled data) turned out to be 96.5 mL/min/kg. For the same compound, in series [4], the “Estimated Free” value is listed as 3600. In addition, the “Human Liver S-9 Intrinsic Clearance _1” value in series [2] (replicate 1) came to 19.0 μL/min/mg protein. For the same compound, the “Human Liver S-9 Intrinsic Clearance _2” value in series [2] (replicate 2) is reported as 17.7 μL/min/mg protein. In series [2] (scaled data), the “Human Liver S-9 in vitro scaled Intrinsic Clearance” value was 56.5 mL/min/kg. For the same compound, the “Human Hepatocytes Intrinsic Clearance” value in series [3] (raw data, AO calibration set) came out at 49.1 μL/min/10^6 cells. In addition, the “Human Hepatocytes in vitro scaled Intrinsic Clearance” value in series [3] (scaled data) stood at 125 mL/min/kg.
Take `CN(Cc1cnc2nc(N)nc(N)c2n1)c1ccc(C(=O)N[C@@H](CCC(=O)O)C(=O)O)cc1` [methotrexate]: the “Human Liver Cytosol Intrinsic Clearance _1” value in series [1] (setting [7]) is given as less than 0.7 μL/min/mg protein. Also, in series [1] (setting [8]), the “Human Liver Cytosol Intrinsic Clearance _2” value is recorded as less than 0.7 μL/min/mg protein. Further, the “Human Liver Cytosol in vitro scaled Intrinsic Clearance” value in series [1] (scaled data) is less than 1.5 mL/min/kg. Moreover, the “Estimated Free” value in series [4] is 0.44. The “Human Liver S-9 Intrinsic Clearance _1” value in series [2] (replicate 1) is listed as less than 1.1 μL/min/mg protein. The “Human Liver S-9 Intrinsic Clearance _2” value in series [2] (replicate 2) was less than 1.1 μL/min/mg protein. Besides, the “Human Liver S-9 in vitro scaled Intrinsic Clearance” value in series [2] (scaled data) was less than 3.4 mL/min/kg. Moreover, the “Human Hepatocytes Intrinsic Clearance” value in series [3] (raw data, AO calibration set) is reported as less than 2.7 μL/min/10^6 cells. The “Human Hepatocytes in vitro scaled Intrinsic Clearance” value in series [3] (scaled data) was less than 6.9 mL/min/kg.
As to `[2H]c1nc2cccnc2n1C([2H])([2H])c1cc(OC)c2c(c1)O[C@@H](C)[C@H](c1ccc(OC)nc1)O2` (racemic) [Compound 4, (+/−)-3-(((trans)-8-methoxy-2-(6-methoxypyridin-3-yl)-3-methyl-2,3-dihydrobenzo[b][1,4]dioxin-6-yl)methyl-d2)-3H-imidazo[4,5-b]pyridine-2-d], the CLint scaled at 1 μM in series [1] came to 3.4 mL/min/kg; in series [3] it was 19 mL/min/kg. Besides, the microsomal CLint at 1 μM came out at 1.2 µL/min/mg in series [1] (setting [5]) and 2.1 µL/min/mg in series [1] (setting [6]). In addition, the hepatocyte CLint at 1 μM in series [3] stood at 7.45 µL/min/1e6 cells.
`CCN(C(C)=O)c1cccc(-c2ccnc3c(C#N)cnn23)c1` [zaleplon]: the microsomal CLint at 1 μM in series [1] (setting [9]) stood at 3.1 µL/min/mg; in series [1] (setting [10]) it was 3.4 µL/min/mg; in series [2] (setting [12]), 2.11 µL/min/mg; in series [2] (setting [13]) it was 3.32 µL/min/mg. The CLint scaled at 1 μM in series [1] (setting [11]) is 6 mL/min/kg; in series [2] (setting [14]), 7.1 mL/min/kg; in series [3] (setting [16]), 19.2 mL/min/kg. The “Estimated Free” value in series [4] is listed as 65. Also, the hepatocyte CLint at 1 μM in series [3] (setting [15]) turned out to be 7.53 µL/min/1e6 cells.
Take `[2H]c1ccc2nc([2H])n(Cc3cc(OC)c4c(c3)O[C@@H](C)[C@H](c3ccc(OC)nc3)O4)c2n1` (racemic) [Compound 2, (+/−)-3-(((trans)-8-methoxy-2-(6-methoxypyridin-3-yl)-3-methyl-2,3-dihydrobenzo[b][1,4]dioxin-6-yl)methyl)-3H-imidazo[4,5-b]pyridine-2,5-d2]: the CLint scaled at 1 μM in series [1] is 4.3 mL/min/kg; in series [3] it was 16.2 mL/min/kg. The microsomal CLint at 1 μM in series [1] (setting [5]) was determined as 1.5 µL/min/mg; in series [1] (setting [6]), 1.7 µL/min/mg. This compound gave a hepatocyte CLint at 1 μM in series [3] of 6.36 µL/min/1e6 cells.
On to `CC[C@H]1OC(=O)[C@H](C)C(=O)[C@H](C)[C@@H](O[C@@H]2O[C@H](C)C[C@H](N(C)C)[C@H]2O)[C@](C)(OC)C[C@@H](C)C(=O)[C@H](C)[C@H]2N(C3CN([C@H](C)c4ccnc5ncccc45)C3)C(=O)O[C@]12C` [PF-945863], for which the “Human Liver Cytosol Intrinsic Clearance _1” value in series [1] (setting [7]) turned out to be 8.2 μL/min/mg protein. In addition, the “Human Liver Cytosol Intrinsic Clearance _2” value in series [1] (setting [8]) was 6.9 μL/min/mg protein. Further, the “Human Liver Cytosol in vitro scaled Intrinsic Clearance” value in series [1] (scaled data) was determined as 15.4 mL/min/kg. Also, the “Estimated Free” value in series [4] is reported as 170. In addition, in series [2] (replicate 1), the “Human Liver S-9 Intrinsic Clearance _1” value worked out at 6.78 μL/min/mg protein. The “Human Liver S-9 Intrinsic Clearance _2” value in series [2] (replicate 2) is listed as 6.22 μL/min/mg protein. The “Human Liver S-9 in vitro scaled Intrinsic Clearance” value in series [2] (scaled data) is 20.1 mL/min/kg. Moreover, in series [3] (raw data, AO calibration set), the “Human Hepatocytes Intrinsic Clearance” value turned out to be 10.7 μL/min/10^6 cells. Besides, in series [3] (scaled data), the “Human Hepatocytes in vitro scaled Intrinsic Clearance” value was found to be 27.2 mL/min/kg.
